Reference: ChEMBL document CHEMBL1201862, “PubChem BioAssay data set” (2004)
Activity calls are given as the source filed them.

What was measured:
Assay type in all cases: functional
[1] = target: T1, DNA repair and recombination protein RAD54-like (Homo sapiens, UniProt Q92698); experiment: RAD54 Holliday junction migration blockers – biochemical, fluorescence, cherry-picked samples, dose series, confirmation (AID 651657)
T1 sequence (Q92698 whole entry): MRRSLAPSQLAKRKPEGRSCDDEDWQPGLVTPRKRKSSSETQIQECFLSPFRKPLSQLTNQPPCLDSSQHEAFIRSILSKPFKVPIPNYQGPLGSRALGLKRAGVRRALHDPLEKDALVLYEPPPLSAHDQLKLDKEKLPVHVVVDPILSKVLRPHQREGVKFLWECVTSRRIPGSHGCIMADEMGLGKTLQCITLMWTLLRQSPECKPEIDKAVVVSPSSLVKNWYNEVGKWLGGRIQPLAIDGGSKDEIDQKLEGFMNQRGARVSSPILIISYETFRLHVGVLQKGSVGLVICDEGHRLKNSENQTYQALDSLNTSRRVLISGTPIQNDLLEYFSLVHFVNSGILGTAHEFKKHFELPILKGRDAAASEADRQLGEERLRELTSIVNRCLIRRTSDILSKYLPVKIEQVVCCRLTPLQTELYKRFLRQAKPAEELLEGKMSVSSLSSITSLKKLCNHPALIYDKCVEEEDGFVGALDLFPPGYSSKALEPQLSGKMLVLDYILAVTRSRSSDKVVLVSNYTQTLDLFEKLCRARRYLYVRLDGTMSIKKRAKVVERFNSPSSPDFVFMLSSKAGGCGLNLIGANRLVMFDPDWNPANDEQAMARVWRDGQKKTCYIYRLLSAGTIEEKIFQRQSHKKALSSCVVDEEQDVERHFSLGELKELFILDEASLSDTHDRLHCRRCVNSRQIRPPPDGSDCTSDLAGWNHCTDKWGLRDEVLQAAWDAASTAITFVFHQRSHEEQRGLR

Vero = experiment: viability loss in Vero cells – cell-based, plate reader, cherry-pick samples, cytotoxicity control, dose response (AID 687020); details: Chlorocebus sabaeus
[2] = target: T2, Beta-2 adrenergic receptor (Homo sapiens, UniProt P07550); experiment: ADRB2 activation measured by internalization – cell-based, FAP fluorogen, flow cytometry, cherry pick 1, dose response (AID 588763)
T2 sequence (P07550 whole entry): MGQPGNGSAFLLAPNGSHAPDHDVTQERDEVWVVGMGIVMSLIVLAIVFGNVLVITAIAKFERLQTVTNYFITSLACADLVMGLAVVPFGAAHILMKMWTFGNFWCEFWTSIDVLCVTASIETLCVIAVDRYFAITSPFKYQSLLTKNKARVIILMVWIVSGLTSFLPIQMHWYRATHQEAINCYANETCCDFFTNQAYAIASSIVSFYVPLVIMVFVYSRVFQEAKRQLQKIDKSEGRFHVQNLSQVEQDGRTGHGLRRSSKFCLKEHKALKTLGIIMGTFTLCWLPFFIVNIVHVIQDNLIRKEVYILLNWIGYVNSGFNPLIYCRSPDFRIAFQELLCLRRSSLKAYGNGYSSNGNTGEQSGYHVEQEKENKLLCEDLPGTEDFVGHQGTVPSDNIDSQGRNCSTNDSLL

Insulin-degrading enzyme = target: T3, Insulin-degrading enzyme (Homo sapiens, UniProt P14735); experiment: Dose Response: Fluorescence polarization-based cell-based high throughput dose response assay for inhibitors of insulin-degrading enzyme (IDE). [Related pubchem assays: 434962 (Primary screen (IDE inhibitors in singlicate)), 449730 (Counterscreen (Cytotoxicity in triplicate)), 435028 (Confirmation (IDE inhibitors in triplicate)), 434984 (Summary …
T3 sequence (P14735 whole entry): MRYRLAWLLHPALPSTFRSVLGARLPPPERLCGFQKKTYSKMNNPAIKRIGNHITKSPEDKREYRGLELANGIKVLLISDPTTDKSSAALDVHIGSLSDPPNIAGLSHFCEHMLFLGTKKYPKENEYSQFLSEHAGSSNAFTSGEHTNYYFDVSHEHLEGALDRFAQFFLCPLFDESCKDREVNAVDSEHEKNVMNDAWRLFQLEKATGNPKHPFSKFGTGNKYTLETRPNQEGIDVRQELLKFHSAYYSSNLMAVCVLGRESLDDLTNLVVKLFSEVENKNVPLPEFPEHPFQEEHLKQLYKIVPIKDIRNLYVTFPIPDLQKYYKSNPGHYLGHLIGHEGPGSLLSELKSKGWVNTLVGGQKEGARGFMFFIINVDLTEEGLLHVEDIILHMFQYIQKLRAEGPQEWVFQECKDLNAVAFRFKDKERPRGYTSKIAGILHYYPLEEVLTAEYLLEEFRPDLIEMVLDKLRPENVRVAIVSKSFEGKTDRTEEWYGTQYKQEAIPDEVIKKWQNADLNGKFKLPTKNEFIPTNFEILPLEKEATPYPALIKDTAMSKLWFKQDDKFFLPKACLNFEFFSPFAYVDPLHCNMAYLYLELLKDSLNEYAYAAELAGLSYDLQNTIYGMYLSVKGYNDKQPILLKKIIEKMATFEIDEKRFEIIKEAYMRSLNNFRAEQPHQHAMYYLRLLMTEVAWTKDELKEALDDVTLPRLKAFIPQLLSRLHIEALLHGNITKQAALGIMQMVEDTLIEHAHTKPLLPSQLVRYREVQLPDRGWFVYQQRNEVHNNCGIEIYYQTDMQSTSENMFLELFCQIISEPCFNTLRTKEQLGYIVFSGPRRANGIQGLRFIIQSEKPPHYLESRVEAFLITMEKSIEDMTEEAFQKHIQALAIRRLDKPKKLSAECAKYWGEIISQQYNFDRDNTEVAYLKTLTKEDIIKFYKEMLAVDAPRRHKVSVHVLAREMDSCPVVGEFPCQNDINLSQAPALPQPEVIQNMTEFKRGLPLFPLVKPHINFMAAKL

[3] = Counterscreen for IDE inhibitors: Luminescence-based cell-based high throughput dose response assay to identify compounds that are cytotoxic to HEK cells. [Related pubchem assays: 434962 (Primary screen (IDE inhibitors in singlicate)), 449730 (Counterscreen (Cytotoxicity in triplicate)), 435028 (Confirmation (IDE inhibitors in triplicate)) …; details: HEK293
[4] = target: T2, Beta-2 adrenergic receptor; experiment: Dose response for HTS for Beta-2AR agonists via FAP method from Powderset3.

| SMILES | AC50 [1] | AC50 (Vero) | EC50 [2] | IC50 (Insulin-degrading enzyme) | IC50 [3] | EC50 [4] |
| --- | --- | --- | --- | --- | --- | --- |
| Cc1ccc(-c2nc(N3CCN(C)CC3)c3ccccc3n2)cc1 | 41.3 µM (active) | 26.8 µM (active) | – | – | – | – |
| Clc1cccc(-c2nnc(SCc3nc4ccccc4[nH]3)n2Cc2ccco2)c1 | – | – | 10.1 µM (inactive) | 2.57 µM (active) | 22.4 µM (not active) | 8.09 µM (active) |
